The values that follow come from article PMC11590367, “Characterization of novel small molecule inhibitors of estrogen receptor-activation function 2 (ER-AF2)” (Breast Cancer Research : BCR, 2024).

Assay [1] concerns the target T1, recombinant ER-LBD (residues 298–554) (Homo sapiens, UniProt P03372).
T1 construct: The ER-LBD (residues 298–554) was cloned into pET28a bacterial expression plasmid; His-tag (N); made in house; host or cells: E. coli BL21-DE3 (with pRARE)
Description: Microscale thermophoresis (MST) direct binding. Particulars: averaged from three independent assays, 20 µM E2 in buffer, read-out: Kd (binding affinity to ER-LBD). The method, then: The ER-LBD (residues 298–554) was cloned into pET28a bacterial expression plasmid with an N-terminal His-tag. pET28a-His-ER and pRARE were transformed into E. coli (BL21-DE3). Bacteria were grown at 37 [drawing 1] C overnight, and then diluted 1:20 the following day in LB media and grown at 37 [drawing 2] C until the OD600 reached 0.5. Protein expression was induced with 1 mM IPTG, and 50 µM E2 was added to the media. Cells were then grown for 5 h at 25 °C. Bacterial pellets were collected by centrifugation at 13,000 rpm for 7 min. Pellets were resuspended in lysis buffer (25 mM Tris, pH 8.4, 150 mM NaCl, 20 µM E2, 1 mM DTT, 0.1 mM PMSF, cOmplete protease inhibitor (Roche)) then sonicated and centrifuged to obtain the soluble extracts. ER-LBD was purified using affinity chromatography with Ni-NTA agarose resin. The presence of the ER-LBD in eluted fractions was confirmed by SDS-PAGE and validated by mass spectrometry. The eluted protein was further purified by size exclusion chromatography (s75), and fractions containing the ER-LBD protein were pooled and concentrated using Amicon Ultra centrifugal filters (3 K MWCO).
MST was used to validate the direct binding and measure the binding affinities between the lead compounds and the recombinant ER-LBD. […]

Assay [2] addresses T2, full length ERɑ protein, estrogen binding site (EBS) (Homo sapiens, UniProt P03372).
T2 construct: full length ERɑ protein was incubated with Fluormone ES2 Green; purchased ThermoFisher A15882
Description: E2-displacement assay (PolarScreen fluorescence polarization). Particulars: fluorescence polarization, 1, 10 and 50 µM. The protocol:
The E2 displacement assay was performed using the PolarScreen Estrogen Receptor Alpha Competitor Assay, Green (ThermoFisher A15882) according to the manufacturer’s protocol. In brief, full length ERɑ protein was incubated with Fluormone ES2 Green (Fluormone Tracer) in the ES2 screening buffer in a black bottom 384-well plate (Corning 3573) in the presence of either 1, 10, or 50 µM of test compounds. The final concentrations in the assay were 2% DMSO (consistent with the MST assay), 4.5 nM fluormone, and 40 nM ERɑ protein. 20 µl of the mixture were added to each well, with triplicates performed for each condition. The plate was incubated in the dark at room temperature for 4 h before fluorescence polarization was measured using a Synergy Neo2 plate reader (BioTek).

For another assay, the target named is ER D538G/F404L mutant (Homo sapiens, UniProt P03372, D538G/F404L). Description: Transcriptional activity of fulvestrant resistant mutant ER. It counts as cell-based. Particulars: compared to DMSO.
Chain of ER D538G/F404L mutant (P03372 whole entry F404L/D538G): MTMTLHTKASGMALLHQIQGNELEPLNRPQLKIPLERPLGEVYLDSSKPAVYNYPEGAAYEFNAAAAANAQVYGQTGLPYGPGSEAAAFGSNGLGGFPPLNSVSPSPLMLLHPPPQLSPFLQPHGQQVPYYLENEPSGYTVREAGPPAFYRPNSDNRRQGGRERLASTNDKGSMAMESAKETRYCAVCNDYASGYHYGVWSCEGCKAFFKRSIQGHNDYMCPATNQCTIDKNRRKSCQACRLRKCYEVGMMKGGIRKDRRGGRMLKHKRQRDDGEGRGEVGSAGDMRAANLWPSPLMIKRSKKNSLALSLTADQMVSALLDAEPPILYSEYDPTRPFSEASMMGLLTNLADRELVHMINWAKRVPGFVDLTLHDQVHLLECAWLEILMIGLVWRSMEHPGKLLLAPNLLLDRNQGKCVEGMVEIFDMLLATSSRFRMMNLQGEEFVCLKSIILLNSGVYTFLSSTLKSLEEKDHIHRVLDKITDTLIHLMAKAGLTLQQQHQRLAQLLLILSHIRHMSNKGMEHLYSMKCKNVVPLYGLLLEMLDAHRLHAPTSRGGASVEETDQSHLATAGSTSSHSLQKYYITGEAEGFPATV
Another assay relates to MCF7 spheroids. Description: Viability assay in 3D spheroids, MCF7. The format is cell-based. Particulars: Homo sapiens, 1:2 dilution from 50 µM, 1 nM E2, read-out: IC50 on growth (area) of MCF7 spheroids. The method, then: MCF7 and T47D cells were seeded into a Corning Costar ultra-low attachment, round-bottom, 96-well plate (Millipore Sigma, CLS7007-24EA) at a density of 2,500 cells/well in starvation media. After 4 days of starvation, the cells were treated with a 1:2 serial dilution of inhibitor from 50 µM to 0.2 µM in the presence of 1 nM estradiol. Images were taken every 6 h using the IncuCyte S3 system and spheroid sizes were determined with the IncuCyte analysis software.

In a further assay the test system is TamR3 spheroids. As to the kind of experiment: Viability assay in 3D spheroids, TamR3. Particulars: 1:2 dilution from 50 µM, 1 nM E2; read-out: IC50 on growth (area) of TamR3 spheroids. It counts as cell-based.
Assay [3] has as its system ER target genes (cyclinD1, CDC2, E2F, PR, pS2) in MCF7 cells. As to the kind of experiment: Real-time PCR of ER target genes, MCF7. The format is cell-based. Particulars: 10 µM, 72 h, E2 stimulation. The method, then:
(§1) Total RNA was extracted using TRIzol, 72 h post-treatment. cDNA synthesis was conducted using the Maxima First Strand cDNA Synthesis Kit for RT-qPCR (Thermo K1641) according to the manufacturer’s protocol. RT-PCR was conducted on the QuantStudio 7 Pro instrument and expression fold change was calculated using 2−ΔΔCt method normalized to 18s.
Background: In qPCR the cycle at which signal appears reflects the starting amount.

Assay [4] concerns ER target genes (cyclinD1, CDC2, E2F, PR, pS2) in TamR3 cells. As to the kind of experiment: Real-time PCR of ER target genes, TamR3. The format is cell-based. Particulars: 72 h. The method, then: as §1
The target of assay [5] is T3, ER (ERE-luc) in PC3 cells (Homo sapiens, UniProt P03372).
T3 construct: expressed in transfected cells; host or cells: PC3 cells
T3 sequence (P03372 whole entry): as the sequence (P03372 whole entry F404L/D538G) above, with L404F, G538D counted along it
Description: Nuclear receptor luciferase transcriptional assay, ER. Particulars: 1 or 5 µM, 1 nM E2, PC3 cells. It counts as cell-based. The protocol:
(§2) PC3 cells (androgen receptor (AR)-, glucocorticoid receptor (GR)[…], progesterone receptor (PR)-, ER-) were starved for 72 h then seeded into a 96-well plate at a density of 5,000 cells/well. 24 h later, cells were transfected with either ER, AR, GR, or PR and a luciferase plasmid (ERE-luc for ER and ARR3tk-luc for AR, GR, and PR). 24 h post-transfection, cells were simultaneously stimulated with 1 nM E2 for ER, 0.1 nM R1881 for AR, 1 nM Dexamethasone for GR, or 1 nM Levonorgestrel for PR, and treated with 1 or 5 µM of VPC-260724 24 h post-treatment, cells were lysed with 50 µl of passive lysis buffer (Promega #E1910). 20 µl of lysate was transferred to a white flat-bottom 96-well plate (Corning Life Sciences Cat#3912). Luminescence readings were obtained using the TECAN M200 Pro plate reader following the addition of 50 µl of luciferase reagent (Promega Luciferase Assay System E1500).

For assay [6], the target named is T4, AR (ARR3tk-luc) in PC3 cells (Homo sapiens, UniProt P10275).
T4 construct: expressed in transfected cells; host or cells: PC3 cells
T4 sequence (P10275 whole entry): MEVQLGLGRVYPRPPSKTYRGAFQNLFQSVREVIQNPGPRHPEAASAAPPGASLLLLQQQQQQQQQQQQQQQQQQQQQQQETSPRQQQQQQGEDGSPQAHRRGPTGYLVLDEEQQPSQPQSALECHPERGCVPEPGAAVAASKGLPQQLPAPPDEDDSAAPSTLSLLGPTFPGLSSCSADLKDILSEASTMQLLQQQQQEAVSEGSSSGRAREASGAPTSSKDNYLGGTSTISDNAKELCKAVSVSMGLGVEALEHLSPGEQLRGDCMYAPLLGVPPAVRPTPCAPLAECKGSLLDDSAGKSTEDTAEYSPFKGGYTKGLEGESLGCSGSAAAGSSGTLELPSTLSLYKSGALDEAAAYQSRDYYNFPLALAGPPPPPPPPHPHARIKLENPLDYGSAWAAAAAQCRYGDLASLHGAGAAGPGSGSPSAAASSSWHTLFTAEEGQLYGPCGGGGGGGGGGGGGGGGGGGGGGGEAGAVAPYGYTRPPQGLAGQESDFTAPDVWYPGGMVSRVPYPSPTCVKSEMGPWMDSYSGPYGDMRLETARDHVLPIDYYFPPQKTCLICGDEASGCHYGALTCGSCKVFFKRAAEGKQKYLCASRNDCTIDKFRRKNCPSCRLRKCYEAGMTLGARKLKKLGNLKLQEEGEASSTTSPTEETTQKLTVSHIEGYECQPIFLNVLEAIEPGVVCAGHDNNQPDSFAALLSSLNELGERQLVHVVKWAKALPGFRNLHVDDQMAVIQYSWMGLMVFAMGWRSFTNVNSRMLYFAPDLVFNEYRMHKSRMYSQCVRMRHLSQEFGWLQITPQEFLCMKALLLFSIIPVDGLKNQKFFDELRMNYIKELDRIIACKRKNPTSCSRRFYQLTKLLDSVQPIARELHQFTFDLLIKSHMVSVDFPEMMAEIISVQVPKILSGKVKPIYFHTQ
As to the kind of experiment: Nuclear receptor luciferase transcriptional assay, AR. It counts as cell-based. Particulars: 1 or 5 µM, 0.1 nM R1881, PC3 cells. The method, then: as §2

T1 sequence (P03372 298-554): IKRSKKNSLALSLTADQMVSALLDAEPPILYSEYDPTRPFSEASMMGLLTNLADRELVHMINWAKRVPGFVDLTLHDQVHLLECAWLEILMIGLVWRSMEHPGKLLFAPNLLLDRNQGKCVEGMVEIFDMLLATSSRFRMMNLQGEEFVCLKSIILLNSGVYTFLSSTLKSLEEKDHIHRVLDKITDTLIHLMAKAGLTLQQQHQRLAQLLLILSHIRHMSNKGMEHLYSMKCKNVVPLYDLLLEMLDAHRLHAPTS
T2 sequence (P03372 whole entry): as the sequence (P03372 whole entry F404L/D538G) above, with L404F, G538D counted along it

One may read the Kd as a measure of binding affinity in units of concentration. For orientation: IC50 means the concentration that gives 50% inhibition. For `Cc1cccn2c(CNCc3cccc(N(C)C)n3)cnc12` [VPC-260724], in assay [1], the Kd was 85.2 ± 32.7 µM. In addition, the “Displacement of fluormone (fluorescent E2) from EBS” value in assay [2] is given as “did not displace the fluormone at any of the tested concentrations”. Besides, at ER D538G/F404L mutant, the “Transcriptional activity of mutant ER D538G/F404L” value is “significantly reduced the transcriptional activity”. Besides, the results for the IC50 in the assay with MCF7 spheroids and in the assay on TamR3 spheroids were 15.6 ± 1.4 µM and 27 ± 3.2 µM, respectively. In assay [3], the “mRNA levels of ER target genes, MCF7” value is recorded as “significant decrease”. The “ER target gene expression in TamR3, combined with tamoxifen” value in [4] (10 µM with 1 µM Tamoxifen) is reported as “markedly reduced”. In assay [4] (10 µM, E2 stimulation), the “mRNA levels of ER target genes, TamR3” value is recorded as “significant decrease”. Also, in assay [5], the “Transcriptional activity of ER” value is listed as “dose-dependent inhibition”. The “Transcriptional activity of AR” value in assay [6] was “did not significantly impact”.
